Test results from patent US9549558B2, “Herbicidal azines” (BASF SE, priority 2012, dated 2017).

What was measured:
Type in all cases: in vivo
[1] = test system: ECHCG (Echinocloa crus-galli); test: greenhouse pre-emergence herbicidal test
From the text: (§1) The culture containers used were plastic flowerpots containing loamy sand with approximately 3.0% of humus as the substrate. The seeds of the test plants were sown separately for each species.
(§2) For the pre-emergence treatment, the active ingredients, which had been suspended or emulsified in water, were applied directly after sowing by means of finely distributing nozzles. The containers were irrigated gently to promote germination and growth and subsequently covered with transparent plastic hoods until the plants had rooted. This cover caused uniform germination of the test plants, unless this had been impaired by the active ingredients.
(§3) Depending on the species, the plants were kept at 10-25° C. or 20-35° C., respectively.
(§4) The test period extended over 2 to 4 weeks. During this time, the plants were tended, and their response to the individual treatments was evaluated.
(§5) Evaluation was carried out using a scale from 0 to 100. 100 means no emergence of the plants, or complete destruction of at least the aerial moieties, and 0 means no damage, or normal course of growth. A moderate herbicidal activity is given at values of at least 60, a good herbicidal activity is given at values of at least 70, and a very good herbicidal activity is given at values of at least 85.
(§6) The plants used in the greenhouse experiments were of the following species: […]

[2] = test system: CAPBP (Capsella bursa-pastoris); test: greenhouse pre-emergence herbicidal test; conditions: CAPBP
From the text: as §1, §2, §3, §4, §5, §6

STEME (Stellaria media) = test: greenhouse pre-emergence herbicidal test
From the text: as §1, §2, §3, §4, §5, §6

SETFA (Setaria faberi) = test: greenhouse pre-emergence herbicidal test
From the text: as §1, §2, §3, §4, §5, §6

[3] = test system: AMARE (Amaranthus retroflexus); test: greenhouse pre-emergence herbicidal test
From the text: (§7) The seeds of the test plants were sown separately for each species. For the pre-emergence treatment, the active ingredients, which had been suspended or emulsified in water, were applied directly after sowing by means of finely distributing nozzles. The containers were irrigated gently to promote germination and growth and subsequently covered with transparent plastic hoods until the plants had rooted. This cover caused uniform germination of the test plants, unless this had been impaired by the active ingredients. Depending on the species, the plants were kept at 10-25° C. or 20-35° C., respectively. The test period extended over 2 to 4 weeks. During this time, the plants were tended, and their response to the individual treatments was evaluated. […] A moderate herbicidal activity is given at values of at least 60, a good herbicidal activity is given at values of at least 70, and a very good herbicidal activity is given at values of at least 85. The plants used in the greenhouse experiments were of the following species: [table]

[4] = test system: ABUTH (Abutilon theophrasti); test: greenhouse post-emergence herbicidal test
From the text: as §1
(§8) For the post-emergence treatment, the test plants were first grown to a height of 3 to 15 cm, depending on the plant habit, and only then treated with the active ingredients which had been suspended or emulsified in water. For this purpose, the test plants were either sown directly and grown in the same containers, or they were first grown separately as seedlings and transplanted into the test containers a few days prior to treatment.
as §3, §4, §5, §6

[5] = test system: AMARE (Amaranthus retroflexus); test: greenhouse post-emergence herbicidal test
From the text: as §1, §8, §3, §4, §5, §6

[6] = test system: ABUTH (Abutilon theophrasti); test: greenhouse pre-emergence herbicidal test
From the text: as §7

SMILES: CCC(CC)c1nc(N)nc(Nc2c(F)c(F)c(F)c(F)c2F)n1 [Example 83]
- herbicidal activity ([1]; 250 g/ha): very good (a very good herbicidal activity is given at values of at least 85)
- herbicidal activity ([2]; 250 g/ha): very good (a very good herbicidal activity is given at values of at least 85)
- herbicidal activity (STEME (Stellaria media); 250 g/ha): very good (a very good herbicidal activity is given at values of at least 85)

SMILES: Nc1nc(CC2CC2)nc(Nc2c(F)cc(F)cc2F)n1 [Example 141]
- herbicidal activity (SETFA (Setaria faberi); 1000 g/ha): very good (a very good herbicidal activity is given at values of at least 85)
- herbicidal activity ([1]; 1000 g/ha): good (a good herbicidal activity is given at values of at least 70)
- herbicidal activity ([3]; 1000 g/ha): very good (a very good herbicidal activity is given at values of at least 85)

SMILES: N#Cc1cccc(F)c1Nc1nc(N)nc(C(F)(F)F)n1 [Example 151]
- herbicidal activity ([4]; 500 g/ha): good (a good herbicidal activity is given at values of at least 70)

SMILES: C=C(C)c1nc(N)nc(Nc2c(F)c(F)c(F)c(F)c2F)n1 [Example 53]
- herbicidal activity (SETFA (Setaria faberi); 0.125 kg/ha): good (a good herbicidal activity is given at values of at least 70)
- herbicidal activity ([3]; 0.125 kg/ha): very good (a very good herbicidal activity is given at values of at least 85)

SMILES: Nc1nc(C2CCCC2)nc(N(C(=O)C2CCCC2)c2c(F)c(F)cc(F)c2F)n1 [Example 304]
- herbicidal activity (SETFA (Setaria faberi); 1000 g/ha): very good (a very good herbicidal activity is given at values of at least 85)
- herbicidal activity ([1]; 1000 g/ha): very good (a very good herbicidal activity is given at values of at least 85)
- herbicidal activity ([3]; 1000 g/ha): very good (a very good herbicidal activity is given at values of at least 85)

SMILES: CC(C)(F)c1nc(N)nc(Nc2c(F)cc(F)cc2F)n1 [Example 28]
- herbicidal activity ([5]; 0.125 kg/ha): very good (a very good herbicidal activity is given at values of at least 85)
- herbicidal activity ([4]; 0.125 kg/ha): very good (a very good herbicidal activity is given at values of at least 85)

SMILES: Nc1nc(Nc2c(F)c(F)c(F)c(F)c2F)nc(C2CCC(C(F)(F)F)CC2)n1 (centres unmarked) [Example 165]
- herbicidal activity (SETFA (Setaria faberi); 1000 g/ha): very good (a very good herbicidal activity is given at values of at least 85)
- herbicidal activity ([1]; 1000 g/ha): very good (a very good herbicidal activity is given at values of at least 85)
- herbicidal activity ([3]; 1000 g/ha): very good (a very good herbicidal activity is given at values of at least 85)

SMILES: N#CC1(c2nc(N)nc(Nc3c(F)c(F)cc(F)c3F)n2)CC1 [Example 216]
- herbicidal activity (SETFA (Setaria faberi); 250 g/ha): good (a good herbicidal activity is given at values of at least 70)
- herbicidal activity ([3]; 250 g/ha): very good (a very good herbicidal activity is given at values of at least 85)
- herbicidal activity ([6]; 250 g/ha): good (a good herbicidal activity is given at values of at least 70)

SMILES: COc1ccc(F)c(F)c1Nc1nc(N)nc(C(F)(F)F)n1 [Example 158]
- herbicidal activity ([4]; 1000 g/ha): very good (a very good herbicidal activity is given at values of at least 85)

SMILES: CC(C)(F)c1nc(N)nc(Nc2c(F)cc([N+](=O)[O-])cc2F)n1 [Example 220]
- herbicidal activity (SETFA (Setaria faberi); 500 g/ha): good (a good herbicidal activity is given at values of at least 70)

SMILES: Nc1nc(C2=CCCCC2)nc(N(C(=O)C2=CCCCC2)c2c(F)c(F)c(F)c(F)c2F)n1 [Example 303]
- herbicidal activity ([5]; 500 g/ha): good (a good herbicidal activity is given at values of at least 70)
- herbicidal activity ([4]; 500 g/ha): good (a good herbicidal activity is given at values of at least 70)

SMILES: CC(C)(C)c1nc(N)nc(Nc2c(F)ccc(F)c2F)n1 [Example 80]
- herbicidal activity ([1]; 125 g/ha): very good (a very good herbicidal activity is given at values of at least 85)
- herbicidal activity ([2]; 125 g/ha): very good (a very good herbicidal activity is given at values of at least 85)
- herbicidal activity (STEME (Stellaria media); 125 g/ha): very good (a very good herbicidal activity is given at values of at least 85)

SMILES: Nc1nc(Nc2c(F)cc(F)cc2F)nc(C2CCC2)n1 [Example 142]
- herbicidal activity (SETFA (Setaria faberi); 500 g/ha): good (a good herbicidal activity is given at values of at least 70)
- herbicidal activity ([3]; 500 g/ha): very good (a very good herbicidal activity is given at values of at least 85)
- herbicidal activity ([6]; 500 g/ha): good (a good herbicidal activity is given at values of at least 70)

SMILES: COC1CCC(c2nc(N)nc(Nc3c(F)c(F)c(F)c(F)c3F)n2)CC1 (centres unmarked) [Example 167]
- herbicidal activity (SETFA (Setaria faberi); 500 g/ha): very good (a very good herbicidal activity is given at values of at least 85)
- herbicidal activity ([3]; 500 g/ha): very good (a very good herbicidal activity is given at values of at least 85)
- herbicidal activity ([6]; 500 g/ha): good (a good herbicidal activity is given at values of at least 70)

SMILES: CC(C)(C#N)c1nc(N)nc(Nc2c(F)c(F)c(F)c(F)c2F)n1 [Example 64]
- herbicidal activity (STEME (Stellaria media); 125 g/ha): very good (a very good herbicidal activity is given at values of at least 85)
- herbicidal activity ([3]; 125 g/ha): very good (a very good herbicidal activity is given at values of at least 85)
- herbicidal activity ([6]; 125 g/ha): very good (a very good herbicidal activity is given at values of at least 85)

SMILES: Nc1nc(Nc2c(F)ccc(F)c2F)nc(C2CCCC2)n1 [Example 212]
- herbicidal activity (SETFA (Setaria faberi); 500 g/ha): very good (a very good herbicidal activity is given at values of at least 85)
- herbicidal activity ([1]; 500 g/ha): very good (a very good herbicidal activity is given at values of at least 85)
- herbicidal activity ([3]; 500 g/ha): very good (a very good herbicidal activity is given at values of at least 85)

SMILES: CC=C(C)c1nc(N)nc(Nc2c(F)c(F)c(Br)c(F)c2F)n1 [Example 194]
- herbicidal activity (SETFA (Setaria faberi); 500 g/ha): good (a good herbicidal activity is given at values of at least 70)

SMILES: CCCCC(C#N)c1nc(N)nc(Nc2c(F)ccc(F)c2F)n1 (centres unmarked) [Example 197]
- herbicidal activity (SETFA (Setaria faberi); 1000 g/ha): good (a good herbicidal activity is given at values of at least 70)

SMILES: Nc1nc(Nc2c(F)c(F)cc(F)c2F)nc(C(F)F)n1 [Example 150]
- herbicidal activity (SETFA (Setaria faberi); 500 g/ha): very good (a very good herbicidal activity is given at values of at least 85)
- herbicidal activity ([3]; 500 g/ha): very good (a very good herbicidal activity is given at values of at least 85)
- herbicidal activity ([6]; 500 g/ha): very good (a very good herbicidal activity is given at values of at least 85)

SMILES: CC(C)(C)C1CCC(c2nc(N)nc(Nc3c(F)c(F)c(F)c(F)c3F)n2)CC1 (centres unmarked) [Example 177]
- herbicidal activity (SETFA (Setaria faberi); 500 g/ha): good (a good herbicidal activity is given at values of at least 70)
- herbicidal activity ([3]; 500 g/ha): very good (a very good herbicidal activity is given at values of at least 85)

SMILES: CCC(C)(Cl)c1nc(N)nc(Nc2c(F)c(F)cc(F)c2F)n1 (centres unmarked) [Example 205]
- herbicidal activity (SETFA (Setaria faberi); 125 g/ha): very good (a very good herbicidal activity is given at values of at least 85)
- herbicidal activity ([1]; 125 g/ha): very good (a very good herbicidal activity is given at values of at least 85)
- herbicidal activity ([3]; 125 g/ha): very good (a very good herbicidal activity is given at values of at least 85)

SMILES: Nc1nc(Nc2c(F)c(F)c(F)c(F)c2F)nc(C(F)(F)C(F)(F)F)n1 [Example 68]
- herbicidal activity ([2]; 125 g/ha): very good (a very good herbicidal activity is given at values of at least 85)
- herbicidal activity (STEME (Stellaria media); 125 g/ha): very good (a very good herbicidal activity is given at values of at least 85)
- herbicidal activity ([3]; 125 g/ha): very good (a very good herbicidal activity is given at values of at least 85)

SMILES: CC(C)(F)c1nc(N)nc(Nc2c(F)ccc(F)c2Cl)n1 [Example 36]
- herbicidal activity ([5]; 0.062 kg/ha): very good (a very good herbicidal activity is given at values of at least 85)
- herbicidal activity ([4]; 0.062 kg/ha): very good (a very good herbicidal activity is given at values of at least 85)

SMILES: CC(Cl)(Cl)c1nc(N)nc(Nc2c(F)c(F)c(F)c(F)c2F)n1 [Example 147]
- herbicidal activity (SETFA (Setaria faberi); 250 g/ha): very good (a very good herbicidal activity is given at values of at least 85)
- herbicidal activity ([1]; 250 g/ha): very good (a very good herbicidal activity is given at values of at least 85)
- herbicidal activity ([3]; 250 g/ha): very good (a very good herbicidal activity is given at values of at least 85)

SMILES: CN(c1nc(N)nc(C(C)(C)F)n1)c1c(F)c(F)c(F)c(F)c1F [Example 307]
- herbicidal activity (SETFA (Setaria faberi); 125 g/ha): very good (a very good herbicidal activity is given at values of at least 85)
- herbicidal activity ([3]; 125 g/ha): very good (a very good herbicidal activity is given at values of at least 85)

SMILES: CC(C)(C)C(=O)N(c1nc(N)nc(C(C)(C)C)n1)c1c(F)c(F)cc(F)c1F [Example 286]
- herbicidal activity (SETFA (Setaria faberi); 125 g/ha): very good (a very good herbicidal activity is given at values of at least 85)
- herbicidal activity ([3]; 125 g/ha): very good (a very good herbicidal activity is given at values of at least 85)
- herbicidal activity ([6]; 125 g/ha): very good (a very good herbicidal activity is given at values of at least 85)
